ChEMBL document CHEMBL1130038, “1,2-Diarylpyrroles as potent and selective inhibitors of cyclooxygenase-2” (J Med Chem, 1997)
Values belong to the molecule of their own block, whether it stands above or below them.

How the values were obtained:
[1] = biological target: T1, Prostaglandin G/H synthase 1 (Homo sapiens, UniProt P23219)
Description: In vitro inhibitory activity against human prostaglandin G/H synthase 1

[2] = biological target: T2, Prostaglandin G/H synthase 2 (Homo sapiens, UniProt P35354)
T2 sequence (P35354 whole entry): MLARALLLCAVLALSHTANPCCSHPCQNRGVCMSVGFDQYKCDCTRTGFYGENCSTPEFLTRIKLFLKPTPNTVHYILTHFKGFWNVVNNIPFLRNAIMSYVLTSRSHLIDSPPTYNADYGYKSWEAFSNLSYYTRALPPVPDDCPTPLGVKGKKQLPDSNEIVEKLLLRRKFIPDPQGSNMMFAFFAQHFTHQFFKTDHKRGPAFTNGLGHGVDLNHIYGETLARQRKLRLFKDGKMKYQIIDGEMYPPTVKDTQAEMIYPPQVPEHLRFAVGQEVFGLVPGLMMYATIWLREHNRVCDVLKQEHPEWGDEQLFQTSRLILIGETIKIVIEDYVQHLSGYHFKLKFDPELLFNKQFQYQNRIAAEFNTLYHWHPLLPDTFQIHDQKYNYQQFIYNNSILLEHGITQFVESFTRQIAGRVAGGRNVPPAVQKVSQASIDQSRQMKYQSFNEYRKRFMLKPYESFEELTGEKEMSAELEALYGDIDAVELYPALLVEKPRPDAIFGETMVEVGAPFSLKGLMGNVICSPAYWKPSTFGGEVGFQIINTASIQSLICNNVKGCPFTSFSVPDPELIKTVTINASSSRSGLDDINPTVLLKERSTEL
Description: In vitro inhibitory activity against human Prostaglandin G/H synthase 2; NA indicates inactive

[3] = biological target: T1, Prostaglandin G/H synthase 1; remark: listed apart in the source
Description: In vitro inhibitory activity against human Prostaglandin G/H synthase 1; NA indicates inactive

[4] = species: Rattus norvegicus; assay: animal or person; conditions: po, read-out: Inhibition
[5] = species: Rattus norvegicus; assay: animal or person; conditions: po, read-out: Inhibition; remark: listed apart in the source
[6] = biological target: T1, Prostaglandin G/H synthase 1; remark: listed apart in the source
[7] = biological target: T2, Prostaglandin G/H synthase 2; remark: listed apart in the source
[8] = species: Homo sapiens; assay: tissue or blood
[9] = species: Homo sapiens; assay: tissue or blood; remark: listed apart in the source
Description: Ability to inhibit LPS-induced PGE-2 production in human whole blood

[10] = biological target: T1, Prostaglandin G/H synthase 1; format: functional, cell-based, HL-60
Description: In vitro inhibitory activity against Prostaglandin G/H synthase 1 in retinoic acid stimulated HL-60 cells

[11] = species: Homo sapiens; assay: tissue or blood; remark: listed apart in the source
Description: Inhibition of TXB2 production in the human whole blood.

[12] = species: Homo sapiens; assay: tissue or blood; remark: listed apart in the source
Description: Inhibition of LPS-induced PGE-2 production in the human whole blood.

T1 sequence (P23219 whole entry): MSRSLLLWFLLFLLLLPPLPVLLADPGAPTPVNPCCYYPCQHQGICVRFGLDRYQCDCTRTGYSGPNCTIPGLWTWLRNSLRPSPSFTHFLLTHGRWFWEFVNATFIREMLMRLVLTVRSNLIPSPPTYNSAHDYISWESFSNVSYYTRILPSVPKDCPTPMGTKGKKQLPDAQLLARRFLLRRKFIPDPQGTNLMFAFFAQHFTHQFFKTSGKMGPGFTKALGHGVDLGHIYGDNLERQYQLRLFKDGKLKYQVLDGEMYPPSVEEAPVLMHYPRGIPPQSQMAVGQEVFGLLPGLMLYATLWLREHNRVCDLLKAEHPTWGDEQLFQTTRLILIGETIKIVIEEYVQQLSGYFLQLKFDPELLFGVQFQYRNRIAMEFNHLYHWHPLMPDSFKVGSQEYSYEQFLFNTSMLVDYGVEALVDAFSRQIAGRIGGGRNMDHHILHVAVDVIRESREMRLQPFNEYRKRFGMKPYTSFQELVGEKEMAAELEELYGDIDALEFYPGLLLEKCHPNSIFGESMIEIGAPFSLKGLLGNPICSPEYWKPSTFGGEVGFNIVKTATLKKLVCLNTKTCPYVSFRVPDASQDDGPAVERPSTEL

SMILES: Cc1ccc(-n2c(C)ccc2-c2ccc(S(C)(=O)=O)cc2)cc1
- inhibition in vivo at 10 mg/kg [4]: 25%

SMILES: Cc1c(C(O)C(F)(F)F)cc(-c2ccc(S(C)(=O)=O)cc2)n1-c1ccc(F)cc1 (stereo not given)
- inhibition in vivo at 20 mg/kg [5]: 15%

SMILES: NS(=O)(=O)c1ccc(-n2cccc2-c2ccc(F)cc2)cc1
- inhibition in vivo at 10 mg/kg [4]: 30%

SMILES: Cc1c(Br)cc(-c2ccc(S(C)(=O)=O)cc2)n1-c1ccc(F)cc1
- inhibition in vivo at 10 mg/kg [4]: 34%

SMILES: Cc1ccc(-c2ccc(S(C)(=O)=O)cc2)[nH]1
- IC50 [1]: > 100 µM

SMILES: CC(=O)c1cc(-c2ccc(S(C)(=O)=O)cc2)n(-c2ccc(F)cc2)c1C
- inhibition in vivo at 10 mg/kg [4]: 13%

SMILES: O=S(=O)(c1ccccc1)c1ccc(-n2cccc2-c2ccc(F)cc2)cc1
- IC50 [1]: > 100 µM

SMILES: CS(=O)(=O)c1ccc(-n2cccc2-c2ccc(F)cc2)cc1Cl
- IC50 [1]: > 100 µM

SMILES: Cc1ccc(-c2ccc(S(C)(=O)=O)cc2)n1-c1ccccc1
- inhibition in vivo at 10 mg/kg [4]: 21%

SMILES: CCCCn1c(C)ccc1-c1ccc(S(C)(=O)=O)cc1
- IC50 [1]: > 100 µM
- inhibition in vivo at 10 mg/kg [4]: 1%

SMILES: Cc1ccc(-c2ccc(S(C)(=O)=O)cc2)n1-c1ccc(F)c(F)c1
- inhibition in vivo at 10 mg/kg [4]: 17%

SMILES: Cc1ccc(-c2ccc(S(C)(=O)=O)cc2)n1C1CCCCC1
- IC50 [1]: > 100 µM

SMILES: Cc1ccc(-c2ccc(S(C)(=O)=O)cc2)n1-c1ccc(C(F)(F)F)cc1
- inhibition in vivo at 10 mg/kg [4]: 31%

SMILES: Cc1ccc(-c2ccc(S(C)(=O)=O)cc2)n1C(C)C
- IC50 [1]: > 100 µM

SMILES: COc1ccc(-c2ccc(CCC(=O)O)n2-c2ccc(C(C)=O)cc2)cc1
- IC50 [1]: 25 µM
- IC50 [8]: 0.3 µM
- IC50 [9]: 1.5 µM
- IC50 [10]: 1 µM

SMILES: CS(=O)(=O)c1ccc(-n2cccc2-c2ccc(F)cc2)cc1
- inhibition in vivo at 10 mg/kg [4]: 42%

More lines, main results first:

- IC50 [1]: > 100 µM
SMILES: CCc1ccc(-c2ccc(S(C)(=O)=O)cc2)n1-c1ccc(F)cc1

- IC50 [1]: > 100 µM
SMILES: CS(=O)(=O)c1ccc(-c2ccc(CCC(=O)O)n2-c2ccc(F)cc2)cc1

- IC50 [1]: > 100 µM
SMILES: CS(=O)(=O)c1ccc(-c2cccn2-c2ccc(F)cc2)cc1

- IC50 [1]: > 100 µM
SMILES: CS(=O)(=O)c1cccc(-n2cccc2-c2ccc(F)cc2)c1

- IC50 [1]: > 100 µM
SMILES: CS(=O)(=O)c1ccc(-c2ccc(C(F)(F)F)n2-c2ccc(F)cc2)cc1

- IC50 [2]: Not Active
- IC50 [3]: Not Active
SMILES: COC(=O)c1ccc(-n2c(C)ccc2-c2ccc(F)cc2)cc1

- IC50 [1]: > 100 µM
SMILES: CN(C)S(=O)(=O)c1ccc(-n2cccc2-c2ccc(F)cc2)cc1

- IC50 [2]: Not Active
- IC50 [3]: Not Active
SMILES: COc1ccc(-c2ccc(C)n2-c2ccc(C(C)=O)cc2)cc1

- IC50 [1]: > 100 µM
SMILES: Cc1ccc(-c2ccc(F)cc2)n1-c1ccc(S(C)(=O)=O)cc1

- IC50 [6]: Active
- IC50 [7]: Active
SMILES: CCN(CC)OC(=O)c1ccc(-n2c(C)ccc2-c2ccc(F)cc2)cc1

- IC50 [2]: Not Active
- IC50 [3]: Not Active
SMILES: Cc1ccc(-c2ccc(F)cc2)n1-c1ccc([S+](C)[O-])cc1 (stereo not given)

- IC50 [1]: > 100 µM
SMILES: Cc1c(COc2ccc(Cl)cc2)cc(-c2ccc(S(C)(=O)=O)cc2)n1-c1ccc(F)cc1

- IC50 [1]: > 100 µM
SMILES: Cc1c(COc2cccc(Cl)c2)cc(-c2ccc(S(C)(=O)=O)cc2)n1-c1ccc(F)cc1

- IC50 [2]: Not Active
- IC50 [3]: Not Active
SMILES: CC(=O)c1ccc(-n2c(C)ccc2-c2ccc(F)cc2)cc1

- IC50 [1]: > 100 µM
SMILES: CNS(=O)(=O)c1ccc(-n2cccc2-c2ccc(F)cc2)cc1

- IC50 [1]: > 100 µM
SMILES: Cc1c(C(Oc2cccc(Cl)c2)C(F)(F)F)cc(-c2ccc(S(C)(=O)=O)cc2)n1-c1ccc(F)cc1 (stereo not given)

- IC50 [1]: > 100 µM
SMILES: Cc1c(S(=O)(=O)C(F)(F)F)cc(-c2ccc(S(C)(=O)=O)cc2)n1-c1ccc(F)cc1
- inhibition in vivo at 20 mg/kg [5]: 30%

- IC50 [1]: > 100 µM
SMILES: Cc1ccc(-c2ccc(S(C)(=O)=O)cc2)n1-c1ccc(F)cc1
- inhibition in vivo at 10 mg/kg [4]: 25%

- IC50 [1]: > 100 µM
SMILES: CCS(=O)(=O)c1ccc(-n2cccc2-c2ccc(F)cc2)cc1

- IC50 [11]: > 50 µM
- IC50 [12]: 4.4 µM
SMILES: CN(C)S(=O)(=O)c1ccc(-n2c(CCC(=O)O)ccc2-c2ccc(F)cc2)cc1

- IC50 [1]: > 100 µM
SMILES: Cc1c(CN(C)C)cc(-c2ccc(S(C)(=O)=O)cc2)n1-c1ccc(F)cc1

- IC50 [1]: > 100 µM
SMILES: Cc1ccc(-c2ccc(S(C)(=O)=O)cc2)n1Cc1ccc(F)cc1
